Each structure is given as a SMILES string.

This experiment relates to HBV. The experiment can be described thus: HBV-DNA Antiviral Assay Using HepG2.117 Cells. Particulars: intracellular HBV DNA by qPCR, day 4. Type of experiment: cell-based. As for the experimental part:
The following assay procedure describes the HBV antiviral assay, using HepG2.117 cells, which carry a stably integrated genotype D HBV genome under the control of a Tet-off promoter, and intracellular HBV DNA quantification as endpoint. Cell viability is assessed in parallel by measuring the intracellular ATP content using ATPlite (Perkin Elmer).
On day 0, HepG2.117 cells (which are maintained in routine cell culture with doxycycline present in the medium at a final concentration of 1 μg/mL) were seeded in 96-well plates (white with clear bottom) at a density of 2.0×10^4 cells/well (0.1 mL/well) in medium without doxycycline to induce pgRNA transcription and subsequent formation of HBV particles. The cells were incubated at 37° C. and 5% CO2.
On day 1, medium was removed from each well, the test articles were diluted in culture medium without doxcycyline and 100 μL was added to cell culture wells (9 concentrations, 4-fold dilution). For each plate, 6 untreated (merely DMSO) wells were included. The final concentration of DMSO in the culture medium was 2%. Each plate was prepared in duplicate (one for HBV DNA extraction, one for ATPlite measurement). The cells were incubated at 37° C. and 5% CO2 for 3 days.
On day 4, cell viability was assessed using ATPlite and cell lysates were prepared for HBV DNA extraction and subsequent quantification by qPCR.
Medium was removed from each well and 100 μL of 0.33% NP-40 in H2O was added to each well. Plates were sealed, incubated at 4° C. for 5 mins, vortexed extensively and centrifuged briefly. Next, 35 μL of lysate was added to 65 μL QuickExtract DNA Extraction Solution (Epicentre) in a PCR plate for each well. PCR plate was incubated at 65° C. for 6 mins, 98° C. for 2 mins and finally cooled to 4° C. HBV DNA was then quantified by qPCR with HBV-specific primers and probes as specified in Table 2 using the Bio-Rad SSOAdvanced Universal Probes Supermix on a CFX96 machine (Bio-Rad). The PCR cycle program consisted of 95° C. for 3 mins, followed by 40 cycles at 95° C. for 10 sec and 60° C. for 30 sec.
A DNA standard was prepared by dilution of an IDT gBlock corresponding to the amplicon with concentrations ranging from 10^2 to 10^8 copies/input (i.e. per 4 μL) and used to generate a standard curve by plotting Cq values vs. HBV DNA standard concentration. The quantity of HBV DNA in each sample was determined by interpolating from the standard curve.
Cell viability was calculated as follows: % Cell viability=(luminescence value of test sample)/(average luminescence value of 2% DMSO control)×100%. HBV DNA inhibition was calculated as follows: 100−(HBV DNA copy number of test sample)/(average HBV DNA copy number of 2% DMSO control)×100%. No normalization to entecavir was required due to the excellent dynamic window of this assay. The CC50, EC so and EC90 values were determined by dose-response curves fitted by GraphPad Prism using “log (agonist) vs. response—Variable slope”.
Background: In qPCR the cycle at which signal appears reflects the starting amount.
With `CC1(c2ncc(Cc3ccccc3)s2)CN(C(=O)c2ccc(Br)c(Cl)c2)CCS1(=O)=O` (racemic) [Compound 36a, (4-bromo-3-chloro-phenyl)-[rac-(2S)-2-(5-benzylthiazol-2-yl)-2-methyl-1,1-dioxo-1,4-thiazinan-4-yl]methanone], the EC50 – broadly, the concentration that produces a half-maximal response – lay within 500 to 5000 nM.

The molecule `CC1(c2ncc(Cc3ccccc3)s2)CN(C(=O)c2ccc(Br)c(Cl)c2)CCS1(=O)=O` (racemic) [Compound 36b, (4-bromo-3-chloro-phenyl)-[rac-(2R)-2-(5-benzylthiazol-2-yl)-2-methyl-1,1-dioxo-1,4-thiazinan-4-yl]methanone] displayed an EC50 of 100 to 500 nM.

As for `C[C@@H](c1cnc([C@@]2(F)CN(C(=O)c3ccc(Br)c(Cl)c3)CCS2(=O)=O)s1)c1ccccc1F` (racemic) [Compound 42a, (rac-2R)-4-(4-bromo-3-chlorobenzoyl)-2-fluoro-2-[5-[(rac-1R)-1-(2-fluorophenyl)ethyl]-1,3-thiazol-2-yl]-1λ^6-thiomorpholine-1,1-dione], the EC50 was no more than 100 nM.

The molecule `C[C@H](c1cnc(C2(F)CN(C(=O)c3ccc(Br)c(Cl)c3)CCS2(=O)=O)s1)c1ccccc1F` (mixture of isomers) [Compound 42b, (rac-2R)-4-(4-bromo-3-chlorobenzoyl)-2-fluoro-2-[5-[(rac-1S)-1-(2-fluorophenyl)ethyl]-1,3-thiazol-2-yl]-1λ^6-thiomorpholine-1,1-dione] had an EC50 of no more than 100 nM.

`C[C@@H](c1cnc(C2(F)CN(C(=O)c3ccc(Br)c(Cl)c3)CCS2(=O)=O)s1)c1ccccc1F` (mixture of isomers) [Compound 42c, (rac-2S)-4-(4-bromo-3-chlorobenzoyl)-2-fluoro-2-[5-[(rac-1R)-1-(2-fluorophenyl)ethyl]-1,3-thiazol-2-yl]-1λ^6-thiomorpholine-1,1-dione]: the half-maximal effective concentration (EC50) was greater than 5000 nM.

`C[C@H](c1cnc(C2(F)CN(C(=O)c3ccc(Br)c(Cl)c3)CCS2(=O)=O)s1)c1ccccc1F` (mixture of isomers) [Compound 42d, (rac-2S)-4-(4-bromo-3-chlorobenzoyl)-2-fluoro-2-[5-[(rac-1S)-1-(2-fluorophenyl)ethyl]-1,3-thiazol-2-yl]-1λ^6-thiomorpholine-1,1-dione] yielded a half-maximal effective concentration (EC50) of 500 to 5000 nM.

As to `O=C(c1ccc(Br)c(Cl)c1)N1CCS(=O)(=O)C(F)(c2ncc(Cc3ccccc3-c3ncccn3)s2)C1` (racemic) [Compound 44a, (rac-2R)-4-(4-bromo-3-chlorobenzoyl)-2-fluoro-2-(5-[[2-(pyrimidin-2-yl)phenyl]methyl]-1,3-thiazol-2-yl)-1λ^6-thiomorpholine-1,1-dione], the concentration for a half-maximal effect (EC50) is no more than 100 nM.

In the case of `O=C(c1ccc(Br)c(Cl)c1)N1CCS(=O)(=O)C(F)(c2ncc(Cc3ccccc3-c3ncccn3)s2)C1` (racemic) [Compound 44b, (rac-2S)-4-(4-bromo-3-chlorobenzoyl)-2-fluoro-2-(5-[[2-(pyrimidin-2-yl)phenyl]methyl]-1,3-thiazol-2-yl)-1λ^6-thiomorpholine-1,1-dione], the EC50 is 500 to 5000 nM.

In turn, `O=C(c1ccc(Cl)c(F)c1)N1CCS(=O)(=O)C(c2cccs2)C1` (single isomer, unassigned) [Compound 7a, (4-chloro-3-fluoro-phenyl)-[1,1-dioxo-2-(2-thienyl)-1,4-thiazinan-4-yl]methanone] showed an EC50 of 100 to 500 nM.

On to `O=C(c1ccc(Cl)c(F)c1)N1CCS(=O)(=O)C(c2cccs2)C1` (single isomer, unassigned) [Compound 7b, (4-chloro-3-fluoro-phenyl)-[1,1-dioxo-2-(2-thienyl)-1,4-thiazinan-4-yl]methanone], for which the EC50 lay within 500 to 5000 nM.

With `Cc1cc(Cl)ccc1C(=O)N1CCS(=O)(=O)C(c2cccs2)C1` (single isomer, unassigned) [Compound 12a, (4-chloro-2-methyl-phenyl)-[1,1-dioxo-2-(2-thienyl)-1,4-thiazinan-4-yl]methanone], the EC50 is greater than 5000 nM.

`Cc1cc(Cl)ccc1C(=O)N1CCS(=O)(=O)C(c2cccs2)C1` (single isomer, unassigned) [Compound 12b, (4-chloro-2-methyl-phenyl)-[1,1-dioxo-2-(2-thienyl)-1,4-thiazinan-4-yl]methanone]: the EC50 lay in the range of 500 to 5000 nM.

The record behind these values is patent US11464783B2, “Heterocyclic compounds” (Aligos Therapeutics, Inc., priority 2019, dated 2022).
